For seven compounds, IC50 results are on record in patent US8901118B2, “Compounds and methods for kinase modulation, and indications therefor” (Plexxikon Inc., priority 2010, dated 2014).

Where only a bound is given, the exact number is not on record here.

In one assay the target is T1, BCR-NTRK2 BaF3 cells (Homo sapiens, UniProt Q16620).
T1 construct: fused on or other part: P11274 (Breakpoint cluster region protein)
The assay is described as follows: BaF3 BCR-NTRK2 cell proliferation assay (ATPlite). The class given is cell-based. The conditions noted are these: read-out: Inhibition of Cell Proliferation IC50, BCR/BaF3 TrkB. The method in brief: (§1)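 ATP-based luminescence (ATPlite), read after 10 min at room temperature, served as a proxy for cell number, and IC50 was fitted against compound concentration. Before that, cells were treated for 3 days with an 8-point 1:3 dilution series starting at 10 μM. BaF3 cells were plated at 10,000/well without IL-3, and MV-4-11 cells at 25,000/well.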
(In general: ATP-based viability assays read luminescence as a measure of living cells.)

The subject of another assay is SKNSH cells. The assay is described as follows: SKNSH (human neuroblastoma) cell proliferation assay (ATPlite). Type of assay: cell-based. The settings on record: SK-N-SH, read-out: Inhibition of Cell Proliferation IC50, SKNSH. The method in brief:
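SK-N-SH human neuroblastoma cells grown in RPMI with 10% FBS were pelleted, resuspended at 2×10^4 cells/mL, and plated at 3,000 cells per well (150 μL) in 96-well plates, then kept overnight at 37° C. in 5% CO2. Compounds in an 8-point 1:3 DMSO series were added as 0.75 μL aliquots.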

The next assay concerns the target T2, BCR-NTRK3 BaF3 cells (Homo sapiens, UniProt Q16288).
T2 construct: fused on or other part: P11274 (Breakpoint cluster region protein)
The assay is described as follows: BaF3 BCR-NTRK3 cell proliferation assay (ATPlite). Type of assay: cell-based. The conditions noted are these: read-out: Inhibition of Cell Proliferation IC50, BCR/BaF3 TrkC. The method in brief:
as §1

Another assay concerns the target CYP2D6 (Homo sapiens, UniProt P10635). The assay is described as follows: CYP2D6 inhibition (fluorescent substrate AMMC). Type of assay: in vitro ADME. The settings on record: read-out: Cyp IC50 2D6. The method in brief: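 Inhibition is measured as the drop in fluorescent metabolite formation across a 10-point compound titration with NADPH regeneration at 37 °C. Incubation lasts 15 min for CYP1A2, 45 min for CYP2C9 and 30 min for CYP2C19 and CYP2D6.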

T2 sequence (Q16288 whole entry, the tested form may be a part): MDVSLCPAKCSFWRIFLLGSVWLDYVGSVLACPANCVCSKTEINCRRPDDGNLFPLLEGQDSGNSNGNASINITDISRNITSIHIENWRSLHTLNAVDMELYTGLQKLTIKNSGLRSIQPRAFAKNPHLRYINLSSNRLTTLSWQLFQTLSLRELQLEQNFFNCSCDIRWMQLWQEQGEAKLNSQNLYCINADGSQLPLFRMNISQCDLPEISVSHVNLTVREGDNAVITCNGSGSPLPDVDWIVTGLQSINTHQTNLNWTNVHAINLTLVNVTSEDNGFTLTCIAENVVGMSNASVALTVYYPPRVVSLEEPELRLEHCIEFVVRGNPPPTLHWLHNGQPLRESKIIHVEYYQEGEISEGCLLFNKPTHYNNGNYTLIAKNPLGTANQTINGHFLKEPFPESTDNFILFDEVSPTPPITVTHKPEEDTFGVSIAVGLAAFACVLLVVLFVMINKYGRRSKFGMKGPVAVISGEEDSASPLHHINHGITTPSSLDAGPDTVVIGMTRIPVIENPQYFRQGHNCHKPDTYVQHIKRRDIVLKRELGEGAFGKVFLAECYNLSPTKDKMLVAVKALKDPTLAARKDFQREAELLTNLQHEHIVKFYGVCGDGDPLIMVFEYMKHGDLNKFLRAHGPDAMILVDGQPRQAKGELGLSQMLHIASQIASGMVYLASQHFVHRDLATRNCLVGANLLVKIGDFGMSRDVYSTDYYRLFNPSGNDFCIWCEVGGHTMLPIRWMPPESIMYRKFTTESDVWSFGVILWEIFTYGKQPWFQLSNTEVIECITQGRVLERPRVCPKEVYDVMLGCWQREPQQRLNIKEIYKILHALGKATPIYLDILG
T1 sequence (Q16620 538-807): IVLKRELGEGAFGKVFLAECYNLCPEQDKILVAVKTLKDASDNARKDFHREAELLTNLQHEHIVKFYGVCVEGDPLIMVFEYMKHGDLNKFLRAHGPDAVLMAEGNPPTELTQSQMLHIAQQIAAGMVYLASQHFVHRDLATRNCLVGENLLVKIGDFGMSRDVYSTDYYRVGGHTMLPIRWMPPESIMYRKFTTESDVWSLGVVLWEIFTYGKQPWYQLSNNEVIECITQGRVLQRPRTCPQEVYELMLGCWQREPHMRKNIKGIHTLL
Chain of CYP2D6 (P10635 whole entry): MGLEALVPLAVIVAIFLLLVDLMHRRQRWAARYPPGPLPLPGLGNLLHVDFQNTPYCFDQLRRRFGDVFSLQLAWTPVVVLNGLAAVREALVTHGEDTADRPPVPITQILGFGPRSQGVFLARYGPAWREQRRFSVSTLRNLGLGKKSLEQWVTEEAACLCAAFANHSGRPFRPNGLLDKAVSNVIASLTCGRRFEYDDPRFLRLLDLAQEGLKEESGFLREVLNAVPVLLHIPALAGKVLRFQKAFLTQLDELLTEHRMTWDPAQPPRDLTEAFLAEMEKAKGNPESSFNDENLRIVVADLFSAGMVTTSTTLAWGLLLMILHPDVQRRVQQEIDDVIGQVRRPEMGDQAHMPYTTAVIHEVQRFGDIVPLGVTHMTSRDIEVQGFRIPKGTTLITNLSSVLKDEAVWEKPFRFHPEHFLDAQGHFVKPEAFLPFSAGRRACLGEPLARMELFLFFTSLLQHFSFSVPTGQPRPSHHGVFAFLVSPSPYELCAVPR

In the case of `Fc1nc(NC2CCC(F)(F)CC2)ccc1Cc1c[nH]c2ncnc(NCC(F)(F)F)c12` [Compound P-4128, 5-[[6-[(4,4-difluorocyclohexyl)amino]-2-fluoro-3-pyridyl]methyl]-N-(2,2,2-trifluoroethyl)-7H-pyrrolo[2,3-d]pyrimidin-4-amine], the IC50 was less than 0.1 µM at BCR-NTRK2 BaF3 cells, greater than 1 µM in the assay on SKNSH cells, less than 0.1 µM on BCR-NTRK3 BaF3 cells and greater than 10 µM at CYP2D6.
Turning to `CCOc1ncnc2[nH]cc(Cc3ccc(Nc4ccc(C)nc4)nc3F)c12` [Compound P-4017, [5-(4-Ethoxy-7H-pyrrolo[2,3-d]pyrimidin-5-ylmethyl)-6-fluoro-pyridin-2-yl]-(6-methyl-pyridin-3-yl)-amine], the IC50 at BCR-NTRK2 BaF3 cells is less than 1 µM; in the assay with SKNSH cells, less than 1 µM; at BCR-NTRK3 BaF3 cells it was less than 0.1 µM; on CYP2D6, greater than 10 µM.
In the case of `Fc1nc(Nc2ccc(C3CC3)nc2)ccc1Cc1c[nH]c2ncnc(NCC(F)(F)F)c12` [Compound P-4130, 5-[[6-[(6-cyclopropyl-3-pyridyl)amino]-2-fluoro-3-pyridyl]methyl]-N-(2,2,2-trifluoroethyl)-7H-pyrrolo[2,3-d]pyrimidin-4-amine], the IC50 at BCR-NTRK2 BaF3 cells is less than 0.01 µM; with SKNSH cells, less than 10 µM; on BCR-NTRK3 BaF3 cells, less than 0.01 µM; on CYP2D6 it was greater than 10 µM.
In the case of `CCOc1ccc(Nc2ccc(C(=O)c3c[nH]c4ncnc(OC)c34)c(F)n2)cn1` [Compound P-4024, [6-(6-Ethoxy-pyridin-3-ylamino)-2-fluoro-pyridin-3-yl]-(4-methoxy-7H-pyrrolo[2,3-d]pyrimidin-5-yl)-methanone], the IC50 at BCR-NTRK2 BaF3 cells was less than 0.1 µM; in the assay with SKNSH cells, greater than 1 µM; on BCR-NTRK3 BaF3 cells, less than 0.1 µM; on CYP2D6 it was greater than 10 µM.
For `COc1ccc(Nc2ccc(Cc3c[nH]c4ncnc(OC)c34)c(F)n2)cn1` [Compound P-4001, [6-Fluoro-5-(4-methoxy-7H-pyrrolo[2,3-d]pyrimidin-5-ylmethyl)-pyridin-2-yl]-(6-methoxy-pyridin-3-yl)-amine], the IC50 on BCR-NTRK2 BaF3 cells is less than 0.1 µM; in the assay with SKNSH cells, less than 1 µM; at BCR-NTRK3 BaF3 cells it was less than 0.01 µM; on CYP2D6, greater than 10 µM.
Turning to `COc1ccc(Nc2ccc(Cc3c[nH]c4ncnc(C)c34)c(F)n2)cn1` [Compound P-4002, [6-Fluoro-5-(4-methyl-7H-pyrrolo[2,3-d]pyrimidin-5-ylmethyl)-pyridin-2-yl]-(6-methoxy-pyridin-3-yl)-amine], the IC50 was less than 1 µM at BCR-NTRK2 BaF3 cells, less than 0.1 µM with SKNSH cells, less than 0.1 µM on BCR-NTRK3 BaF3 cells and greater than 10 µM at CYP2D6.
For `Cc1cnc2[nH]cc(Cc3ccc(Nc4ccc(C)nc4)nc3F)c2c1` [Compound P-3041, [6-Fluoro-5-(5-methyl-1H-pyrrolo[2,3-b]pyridin-3-ylmethyl)-pyridin-2-yl]-(6-methyl-pyridin-3-yl)-amine], the IC50 is less than 1 µM on BCR-NTRK2 BaF3 cells, greater than 1 µM with SKNSH cells, less than 0.1 µM at BCR-NTRK3 BaF3 cells and greater than 10 µM at CYP2D6.
